Columns and labels:
[1] = system: myelin oligodendrocyte glycoprotein (MOG)-induced murine model of experimental autoimmune encephalomyelitis (EAE); experiment: Body weight in MOG-induced EAE model; type: in vivo, C57BL/6J mice; conditions: for BW compared to vehicle group: throughout the study
Method: (§1) The effect of Compound 1 on spasticity was evaluated in a myelin oligodendrocyte glycoprotein (MOG)-induced murine model of experimental autoimmune encephalomyelitis (EAE), a central nervous system (CNS) autoimmune demyelinating disease that mimics many of the clinical and pathologic features of multiple sclerosis. Gilgun-Sherki Y., et al., Neurosciences Research 47:201-207, 2003.
(§2) Study Design and Results. This study used sixty female young adult (10-11 weeks at study initiation) C57BL/6J mice sourced from Envigo RMS (Israel), Ltd. The animals were divided into five experimental groups:
(§3) Each group received a dose volume of 5 ml/kg, and the regimen was performed daily from day 0 to 22 of the study, QD. On study day 21, half of the animals in each group was treated and tested for electrophysiology and electromyography (EMG) two hours post dosing. On study day 22, the same was performed with the remaining half of the animals in each group.
(§4) FIG. 1 provides a representation of the study. Following baseline measurements, the MOG murine model begins with a sensitization period induced by the single subcutaneous (SC) injection of MOG emulsified in Complete Freund's adjuvant (CFA) on Study Day 0, followed by intraperitoneal (IP) supplemental immunostimulation with pertussis toxin (PT) carried out once at the day of EAE induction (study day 0) and once again 48 hours later (on study day 2). […] Mechanical allodynia was tested using the Von Frey test at Baseline and on Day 9 at various timepoints. For evaluation of spasticity, transcranial motor-evoked potentials (tcMEPs) were tested at Baseline and on Days 9 and 21-22 (half of the animals on each day). All animals were administered treatment once daily, starting on Day 0 until Day 22. Animals in Group 1 received oral (PO) treatment with the vehicle. Animals in Group 2 were treated with Fingolimod (FTY720; positive control) at a dose level of 3 mg/kg. PO. Animals in Groups 3 and 4 were treated with the test item Compound 1 at a dose level of 10 mg/kg or 3 mg/kg, PO, respectively. […]

[2] = system: rat model of spasticity induced by complete spinal cord transection; experiment: Rate-dependent depression (RDD) of the H-reflex in SCI rats; type: in vivo; conditions: for mean relative amplitudes of the H-reflex (RDD), effect on spasticity / mean relative amplitudes of the H-reflex (RDD): SCI rats 5 weeks after injury; for duration of action (H-reflex RDD): recordings up to 6 hours
Method: (§5) The efficacy of Compound 1 was measured in a rat model of spasticity induced by complete spinal cord transection. To induce muscle spasticity, a model of complete spinal cord transection cord at the eighth thoracic (T8) vertebral level was used. Five weeks after the Spinal Cord Injury (SCI), the rats were orally (P.O.) treated with Compound 1 (3, 10, or 30 mg/kg), Baclofen (4.5 mg/kg). Tizanidine (3 mg/kg) or vehicles alone (0.9% NaCl, Compound 1 vehicle), and the degree of spasticity response was measured using the rate-dependent depression (RDD) of the Hoffmann's reflex (H-reflex) and spasms induction.
(§6) Materials and Methods. […] One hundred and fifty-one SCI rats were maintained up to the end of the 5th post-injury week. One hundred and forty rats were submitted to P.O. administration of the test compounds and EMG analysis.
(§7) The rat was firmly restrained to immobilize the head. In an upright position, the gavage needle was passed along the side of the mouth. Following the roof of the mouth, the needle was advanced into the esophagus and toward the stomach. After the needle is passed to the correct length, the compound was slowly injected. The rats were randomly assigned to one of the test groups:
(§8) Electroneuromyographical recordings were performed in the right hind limbs before and 1, 2, 3, 4, 5 and 6 hours after P.O. administration.
(§9) Electromyographical (EMG) signals were amplified (100×) and bandpass filtered (300 Hz to 5 kHz; A-M Systems Amplifier. Everett, Washington; model 1700) before sampling at 13.5 kHz (Digidata 1440A, Molecular Devices). The tibial nerve was stimulated by using square pulses with increasing stimulus intensities (0.2 mA increments starting from 0.2 mA, 0.2 Hz, 0.2 ms; A-M systems stimulator, Model 2100) to obtain recruitment curves.
RDD of the H-reflex: To induce sedation, intraperitoneal injection of ketamine (100 mg/kg; Imalgen®) was used to suppress voluntary movements and increase muscle tone. Rats thorax and hindlimbs were secured on a heating pad with adhesive tape. The following series of measurements were repeated throughout the experiment: • 1. Hmax and Mmax determination: the tibial nerve was stimulated for 0.2 ms at 0.2 Hz with increasing current intensities (1-6 mA in 0.1 mA increments) until Mmax was stabilized. • 2. RDD measurement: the intensity necessary to obtain a maximal H-reflex was used for trains of 13 stimulations at 0.2, 1, 2 and 5 Hz with 2 min intervals between each train of stimulations. A whole series of measurements lasted about 15 minutes. • 3. Determination of the level of RDD: at the different frequencies, responses to the first three stimulations necessary for the depression to occur were discarded, and all the responses were expressed as percentages relative to the mean response at 0.2 Hz in the same series of measurements.
(§10) Data analysis: H-reflex RDDs and areas under the curves (AUC) were determined as a measurement of spasticity and analyzed at each time point and for each frequency with Mann-Whitney test or with Kruskal Wallis one-way analysis of variance (ANOVA) test, followed by Dunn's multiple comparisons test. P<0.05 was considered significant. Significant differences were marked with asterisks (*) according to their respective P-values: values were expressed as the mean value±standard error of the mean (SEM) in all graphs. All statistical analyses were performed using GraphPad Prism 7 (San Diego, California, USA).
Modulation of the RDD of the H-reflex. The Hoffmann reflex was used to assess primary (type 1a) afferents-mediated motoneuronal excitability in rats suffering from spasticity. Electromyograms typically show two responses: an initial M wave (FIG. 6B) resulting from the direct activation of motor axons (FIG. 6A-1), and a delayed H wave (FIG. 6B) resulting from the monosynaptic activation of motoneurons by the afferents (FIG. 6A-2). […]

[3] = system: rat model of spasticity induced by complete spinal cord transection; experiment: Muscle spasms evoked by tibial nerve stimulation in chronic SCI rats; type: in vivo; conditions: for duration of action (muscle spasms): recordings up to 6 hours
Method: as §5, §6, §7, §8, §9
Muscles spasms: In awake chronic SCI rats, muscle spasms were evoked with stimulation of the tibial nerve while performing electromyographic (EMG) recordings from the flexor digitorum brevis (FDB) muscle. Spastic spinal rats were handled nine days before the experiment and progressively habituated to be individually constrained in a plexiglass tube and to immobilization of their paralyzed hindlimbs with tape. • 1. Hmax and Mmax determination: the tibial nerve was stimulated for 0.2 ms at 0.2 Hz with increasing current intensities (1-6 mA in 0.2 mA increments) until Mmax was stabilized. • 2. A supramaximal single-pulse stimulation to elicit muscle spasms was fixed throughout the experiment (2 or 3 times the threshold intensity for M-wave) and evoked 5 times, with 60 s interstimulus intervals. EMG were rectified and averaged over 2000 ms interval post-stimulus to quantify spasms (Clamplit 8.0, Axon Instruments).
as §10
Modulation of Muscle Spasms. When the tibial nerve was stimulated in acutely (1 week after injury) injured rats, little reflexes were evoked in the FDB muscle (FIG. 8A), regardless of the stimulation intensity. In contrast, stimulation of the tibial nerve in chronic (5 weeks after injury) SCI rats produced more (P<0.0001; Mann-Whitney test; FIG. 8C) long-lasting muscle contractions (FIG. 8B). This effect is a reliable correlate of the development of spasticity. In spastic rats, spasms were induced through the FDB muscle after electrical stimulation of the tibial nerve. […]

[4] = system: myelin oligodendrocyte glycoprotein (MOG)-induced murine model of experimental autoimmune encephalomyelitis (EAE); experiment: Mechanical allodynia evaluation (Von Frey testing) in EAE model; type: in vivo, C57BL/6J mice; conditions: Day 9
Method: as §1, §2
(§11) FIG. 1 provides a representation of the study. Following baseline measurements, the MOG murine model begins with a sensitization period induced by the single subcutaneous (SC) injection of MOG emulsified in Complete Freund's adjuvant (CFA) on Study Day 0, followed by intraperitoneal (IP) supplemental immunostimulation with pertussis toxin (PT) carried out once at the day of EAE induction (study day 0) and once again 48 hours later (on study day 2). […] Mechanical allodynia was tested using the Von Frey test at Baseline and on Day 9 at various timepoints. For evaluation of spasticity, transcranial motor-evoked potentials (tcMEPs) were tested at Baseline and on Days 9 and 21-22 (half of the animals on each day). All animals were administered treatment once daily, starting on Day 0 until Day 22. Animals in Group 1 received oral (PO) treatment with the vehicle. Animals in Group 2 were treated with Fingolimod (FTY720; positive control) at a dose level of 3 mg/kg. PO. Animals in Groups 3 and 4 were treated with the test item Compound 1 at a dose level of 10 mg/kg or 3 mg/kg, PO, respectively. Animals in Group 5 were treated with Tizanidine at a dose level of 1 mg/kg, IP.
Mechanical Allodynia Evaluation (Von Frey Testing): Animals were tested for mechanical allodynia using the Von Frey test at Baseline, and then on Day 9 at 0.5 hours ([…]), 1.5 hours, 3.5 hours (all groups) and 5.5 hours (Groups 1-4 only) post-dose.

[5] = system: myelin oligodendrocyte glycoprotein (MOG)-induced murine model of experimental autoimmune encephalomyelitis (EAE); experiment: EAE clinical score and AUC; type: in vivo, C57BL/6J mice
Method: as §1, §2
as §4, with “22.” for “22. Animals in Group 1 received oral (PO) treatment with the vehicle. Animals in Group 2 were treated with Fingolimod (FTY720; positive control) at a dose level of 3 mg/kg. PO. Animals in Groups 3 and 4 were treated with the test item Compound 1 at a dose level of 10 mg/kg or 3 mg/kg, PO, respectively.”

[6] = system: myelin oligodendrocyte glycoprotein (MOG)-induced murine model of experimental autoimmune encephalomyelitis (EAE); experiment: Electrophysiology (EMG, transcranial motor-evoked potentials) in EAE model; type: in vivo, C57BL/6J mice; conditions: for latency / latency until reaching the main event / peak-to-peak (P2P) amplitude: Day 10; for latency: vehicle 6.94±0.59 ms; for latency until reaching the main event: vehicle 10.05±2.59 ms; for peak-to-peak (P2P) amplitude: vehicle 7681.17±1505.12 μV; for rate of fibrillation (EMG): Day 21, vehicle printed 1.11±4.69 Hz
Method: as §1, §2, §3, §11
Electrophysiology: The animals were subjected to electrophysiology testing at Baseline and Days 10 and 21 of the study. The EMG, latency, latency to main event, duration, peak-to-peak (P2P) amplitude, and number of subpeaks were recorded.

[7] = both dose levels (10 and 3 mg/kg PO QD)

## CC(C)C[C@](C)(N)COc1ccc(-c2ccnc(C(F)F)c2)nc1C(F)F [Compound 1, (S)-1-((2′,6-bis(difluoromethyl)-[2,4′-bipyridin]-5-yl)oxy)-2,4-dimethylpentan-2-amine]
[1]; 3 mg/kg PO QD
  BW compared to vehicle group: not significantly different from the vehicle group
[1]; 10 mg/kg PO QD
  BW compared to vehicle group: not significantly different from the vehicle group
[2]; single P.O. 3 mg/kg
  mean relative amplitudes of the H-reflex (RDD), effect on spasticity: did not appear to affect spasticity
[2]; single P.O. 10 mg/kg
  onset of action (H-reflex RDD): 1 h
  mean relative amplitudes of the H-reflex (RDD): significantly reduced
  duration of action (H-reflex RDD): at least 6 hour
[2]; single P.O. 30 mg/kg
  onset of action (H-reflex RDD): 1 h
  mean relative amplitudes of the H-reflex (RDD): significantly reduced
  duration of action (H-reflex RDD): at least 6 hours
[3]; single P.O. 3 mg/kg
  onset of action (muscle spasms): 1 h
  duration of action (muscle spasms): 5 h
[3]; single P.O. 10 mg/kg
  onset of action (muscle spasms): 1 h
  duration of action (muscle spasms): 3 h
[3]; single P.O. 30 mg/kg
  onset of action (muscle spasms): 1 h
  duration of action (muscle spasms): 5 h
[3]; single P.O., all tested dosages (3, 10, 30 mg/kg), n=10
  muscle spasms (AUC): significantly reduced
[4]; 3 mg/kg PO, all timepoints post dosing
  withdrawal force threshold compared to the vehicle-treated group: higher withdrawal force threshold compared to the vehicle-treated group
[4]; 10 mg/kg PO, 1.5 hours post dosing, vehicle 0.89±0.11 g
  withdrawal force threshold (Von Frey): 1.48 ± 0.10 g
[4]; 10 mg/kg PO, 3.5 hours post dosing, vehicle 0.78±0.06 g
  withdrawal force threshold (Von Frey): 1.36 ± 0.09 g
[4]; 10 mg/kg PO, 5.5 hours post dosing, vehicle 0.82±0.08 g
  withdrawal force threshold (Von Frey): 1.52 ± 0.13 g
[5]; 10 mg/kg or 3 mg/kg PO QD
  clinical score compared to the vehicle: did not result in a significant reduction
[6]; 3 mg/kg PO QD
  latency: 5.31 ± 0.21 ms
  latency until reaching the main event: 5.32 ± 0.22 ms
  peak-to-peak (P2P) amplitude: 11321.67±1321.68 μV
  rate of fibrillation (EMG): 0.38±0.38 Hz
[6]; 10 mg/kg PO QD
  latency: 5.54 ± 0.22 ms
  peak-to-peak (P2P) amplitude: 11613.75±1154.41 μV
  rate of fibrillation (EMG): 1.22±0.57 Hz
[6]; [7]
  duration compared to vehicle treated animals: reduced
  number of sub potentials compared to vehicle treated animals: reduced

## Clc1ccc2nsnc2c1NC1=NCCN1 [Tizanidine, reference compound]
[1]; 1 mg/kg IP QD, Day 16, vehicle 82.06±2.35%
  mean BW presented as percentage from Baseline: 91.31±1.59%
[2]; single P.O. 3 mg/kg
  maximum effect, time (H-reflex RDD): 2 h
  onset of action (H-reflex RDD): 2 h
  mean relative amplitudes of the H-reflex (RDD), effect on spasticity: significantly reduced
[3]; single P.O. 3 mg/kg
  maximum effect, time (muscle spasms): 3 h
  muscle spasms (AUC): reduced
  onset of action (muscle spasms): 2 h
[4]; 1 mg/kg IP, 3.5 hours post dosing, vehicle 0.78±0.06 g
  withdrawal force threshold (Von Frey): 1.32 ± 0.15 g
[4]; 1 mg/kg IP, all timepoints (0.5, 1.5, and 3.5 hours) post-dose
  withdrawal force threshold compared to vehicle: higher withdrawal force threshold
[5]; 1 mg/kg IP QD
  clinical score compared to the vehicle: did not result in a significant reduction
[6]; 1 mg/kg IP QD
  latency until reaching the main event: 5.64 ± 0.19 ms
  peak-to-peak (P2P) amplitude: 13488.71±1234.10 μV
